Measurements taken from PubChem BioAssay AID256 (DTP/NCI, 2004).
“And” between values parts separate entries of the source, which are not always exact repeats. Identical values can stand only once. Toxic doses and inconclusive results are not listed. The calls were made as follows: active = survival T/C of 150% or more; inactive = T/C below 125% in these data.

Test system: CD2F1 mice, L1210 leukemia ip, survival T/C
Test: NCI In Vivo Anticancer Drug Screen. Data for tumor model L1210 Leukemia (intraperitoneal) in CD2F1 (CDF1) mice
Conditions: higher = longer survival
How it was run: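 Compound-dosed mice with transplantable tumor versus matched vehicle controls; endpoint ratio T/C reported.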

[1] = endpoint: mean survival time, dose: 100.0 mg/kg/injection, schedule: Q01DX001 (ip), vehicle: saline with Tween-80
[2] = endpoint: mean survival time, dose: 200.0 mg/kg/injection, schedule: Q01DX001 (ip), vehicle: saline with Tween-80
[3] = endpoint: mean survival time, dose: 100.0 mg/kg/injection, schedule: Q04DX003 (ip), vehicle: saline
[4] = endpoint: mean survival time, dose: 200.0 mg/kg/injection, schedule: Q04DX003 (ip), vehicle: saline
[5] = endpoint: mean survival time, dose: 400.0 mg/kg/injection, schedule: Q01DX001 (ip), vehicle: saline with Tween-80
[6] = endpoint: mean survival time, dose: 100.0 mg/kg/injection, schedule: Q01DX009 (ip), vehicle: saline
[7] = endpoint: mean survival time, dose: 200.0 mg/kg/injection, schedule: Q01DX009 (ip), vehicle: saline
[8] = endpoint: mean survival time, dose: 400.0 mg/kg/injection, schedule: Q01DX009 (ip), vehicle: saline
[9] = endpoint: mean survival time, dose: 400.0 mg/kg/injection, schedule: Q04DX003 (ip), vehicle: saline
[10] = endpoint: mean survival time, dose: 100.0 mg/kg/injection, schedule: Q04DX002 (ip), vehicle: saline with Tween-80
[11] = endpoint: mean survival time, dose: 200.0 mg/kg/injection, schedule: Q04DX002 (ip), vehicle: saline with Tween-80
[12] = endpoint: mean survival time, dose: 400.0 mg/kg/injection, schedule: Q04DX002 (ip), vehicle: saline with Tween-80
[13] = endpoint: mean survival time, dose: 100.0 mg/kg/injection, schedule: Q04DX003 (ip), vehicle: saline with Tween-80
[14] = endpoint: mean survival time, dose: 200.0 mg/kg/injection, schedule: Q04DX003 (ip), vehicle: saline with Tween-80
[15] = endpoint: mean survival time, dose: 400.0 mg/kg/injection, schedule: Q04DX003 (ip), vehicle: saline with Tween-80
[16] = endpoint: mean survival time, dose: 100.0 mg/kg/injection, schedule: Q01DX009 (ip), vehicle: saline with Tween-80
[17] = endpoint: mean survival time, dose: 200.0 mg/kg/injection, schedule: Q01DX009 (ip), vehicle: saline with Tween-80
[18] = endpoint: mean survival time, dose: 400.0 mg/kg/injection, schedule: Q01DX009 (ip), vehicle: saline with Tween-80
[19] = endpoint: mean survival time, dose: 25.0 mg/kg/injection, schedule: Q01DX009 (ip), vehicle: saline with Tween-80

Measured: T/C

N=C(N)N1CCc2ccccc2C1
inactive: endpoint: mean survival time, dose: 18.8 mg/kg/injection, schedule: Q01DX009 (ip), vehicle: saline 103 % of control | endpoint: mean survival time, dose: 37.5 mg/kg/injection, schedule: Q01DX009 (ip), vehicle: saline 98 % of control | endpoint: mean survival time, dose: 75.0 mg/kg/injection, schedule: Q01DX001 (ip), vehicle: saline 97 % of control | endpoint: mean survival time, dose: 75.0 mg/kg/injection, schedule: Q01DX009 (ip), vehicle: saline 103 % of control

N=C(N)c1ccc(OCCOc2ccc(N)cc2)cc1
inactive: [1] 103 % of control | [2] 103 % of control

COc1ccc(CCNC(=O)Cc2ccc(OC)c(OC)c2)cc1OC
inactive: endpoint: mean survival time, dose: 50.0 mg/kg/injection, schedule: Q04DX003 (ip), vehicle: saline 93 % of control | [3] 96 % of control | [4] 96 % of control

CCN(N=O)C(=O)N(Cc1ccccc1)Cc1ccccc1
inactive: endpoint: mean survival time, dose: 25.0 mg/kg/injection, schedule: Q01DX009 (ip), vehicle: other 94 % of control | endpoint: mean survival time, dose: 50.0 mg/kg/injection, schedule: Q01DX009 (ip), vehicle: other 94 % of control | endpoint: mean survival time, dose: 100.0 mg/kg/injection, schedule: Q01DX009 (ip), vehicle: other 96 % of control | endpoint: mean survival time, dose: 200.0 mg/kg/injection, schedule: Q01DX009 (ip), vehicle: other 96 % of control

Nc1ccc2c(c1)C(=O)c1ccc(N)cc1C2=O
inactive: [1] 88 % of control | [2] 96 % of control | [5] 88 % of control

CCOC(=O)c1cnc2c(ccc3ncccc32)c1NCCCN(CC)CC
inactive: endpoint: mean survival time, dose: 12.5 mg/kg/injection, schedule: Q01DX009 (ip), vehicle: Klucel (hydroxypropylcellulose) (HPC) 93 % of control | endpoint: mean survival time, dose: 25.0 mg/kg/injection, schedule: Q01DX009 (ip), vehicle: Klucel (hydroxypropylcellulose) (HPC) 97 % of control | endpoint: mean survival time, dose: 50.0 mg/kg/injection, schedule: Q01DX009 (ip), vehicle: Klucel (hydroxypropylcellulose) (HPC) 97 % of control

OCC1OC(c2cnn(-c3ccccc3)n2)C(O)C1O (configuration not stated)
inactive: endpoint: median survival time, dose: 12.5 mg/kg/injection, schedule: Q01DX005 (ip), vehicle: water 103 % of control | endpoint: median survival time, dose: 25.0 mg/kg/injection, schedule: Q01DX005 (ip), vehicle: water 103 % of control | endpoint: median survival time, dose: 50.0 mg/kg/injection, schedule: Q01DX005 (ip), vehicle: water 102 % of control | endpoint: median survival time, dose: 100.0 mg/kg/injection, schedule: Q01DX005 (ip), vehicle: water 104 % of control | endpoint: median survival time, dose: 200.0 mg/kg/injection, schedule: Q01DX005 (ip), vehicle: water 102 % of control

CC(=O)OC1C(O)C(O)C(OC(C)=O)C(OC(C)=O)C1OC(C)=O (configuration not stated)
inactive: [6] 102 % of control | [7] 102 % of control | [8] 98 % of control

O=[N+]([O-])C/C=C(/C=Nc1ccc(Cl)cc1)[N+](=O)[O-]
inactive: [6] 101 % of control | [3] 105 % of control | [7] 102 % of control | [4] 97 % of control | [8] 96 % of control | [9] 97 % of control

CCC1CCC(NC(C)=O)CC1 (configuration not stated)
inactive: [1] 96 % of control

O=CNC(Cc1ccc(O)cc1)C(=O)O (configuration not stated)
inactive: [6] 97 % of control | [7] 94 % of control | [8] 89 % of control

CN(C)c1ccc(/C=C2N=C(/C=C\c3ccccc3)OC\2=O)cc1
inactive: [10] 98 % of control | [11] 94 % of control | [12] 105 % of control

CCCCCCCCC(=O)CCCC
inactive: [3] 102 % of control | [4] 100 % of control | [9] 98 % of control

N=C(N=c1cc(C(=O)NC(=N)NC(=N)Nc2ccc(Cl)cc2)n(C(=N)NC(=N)Nc2ccc(Cl)cc2)c(C(=O)NC(=N)NC(=N)Nc2ccc(Cl)cc2)c1)NC(=N)Nc1ccc(Cl)cc1
inactive: [13] 98 % of control | [14] 100 % of control | [15] 100 % of control

O=C1c2ccccc2C(=O)N1C(=S)N1C(=O)c2ccccc2C1=O
inactive: [10] 96 % of control | [11] 92 % of control | [12] 92 % of control

O=C(Nc1ccc(Cl)cc1Cl)SCCO
inactive: [16] 108 % of control | [17] 101 % of control | [18] 95 % of control

CN(C)C(=O)C(Cc1c[nH]c2ccccc12)NC(=O)c1ccccc1 (configuration not stated)
inactive: [10] 95 % of control | [11] 103 % of control | [12] 98 % of control

COC(=O)CCCC1CCC(=NNc2ccc([N+](=O)[O-])cc2[N+](=O)[O-])CC1 (configuration not stated)
inactive: [13] 86 % of control | [14] 96 % of control | [15] 93 % of control

Cc1cccc(N)n1
inactive: endpoint: mean survival time, dose: 3.13 mg/kg/injection, schedule: Q04DX002 (ip), vehicle: saline 94 % of control | endpoint: mean survival time, dose: 6.25 mg/kg/injection, schedule: Q04DX002 (ip), vehicle: saline 90 % of control | endpoint: mean survival time, dose: 12.5 mg/kg/injection, schedule: Q04DX002 (ip), vehicle: saline 90 % of control

NOCc1nnc(Nc2ccccc2)s1
inactive: endpoint: mean survival time, dose: 100.0 mg/kg/injection, schedule: Q01DX001 (ip), vehicle: saline 100 % of control | endpoint: mean survival time, dose: 200.0 mg/kg/injection, schedule: Q01DX001 (ip), vehicle: saline 97 % of control | endpoint: mean survival time, dose: 400.0 mg/kg/injection, schedule: Q01DX001 (ip), vehicle: saline 96 % of control

CCc1c(Br)c(CC)c(Br)c(CC)c1Br
inactive: [13] 98 % of control | [14] 97 % of control | [15] 98 % of control

CSC#N
inactive: endpoint: mean survival time, dose: 5.0 mg/kg/injection, schedule: Q01DX009 (ip), vehicle: Klucel (hydroxypropylcellulose) (HPC) 102 % of control | endpoint: mean survival time, dose: 10.0 mg/kg/injection, schedule: Q01DX009 (ip), vehicle: Klucel (hydroxypropylcellulose) (HPC) 102 % of control

O=C(N/N=C/c1ccccc1O)c1ccccc1O
inactive: [16] 93 % of control | [17] 95 % of control | [18] 93 % of control

C1=CC(c2ccccc2)C(c2ccccc2)C(c2ccccc2)=C1 (configuration not stated)
inactive: [1] 95 % of control | [2] 87 % of control | [5] 87 % of control

COc1cc(C(=O)NNC(=O)c2ccc(Cl)cc2)cc(OC)c1OC
inactive: [16] 94 % of control | [17] 86 % of control

O=C(Nc1ccc(Cl)c(C(F)(F)F)c1)Nc1c(Oc2ccc(Cl)c(Cl)c2)ccc(Cl)c1S(=O)(=O)O
inactive: endpoint: mean survival time, dose: 12.5 mg/kg/injection, schedule: Q01DX009 (ip), vehicle: saline 100 % of control | endpoint: mean survival time, dose: 25.0 mg/kg/injection, schedule: Q01DX009 (ip), vehicle: saline 98 % of control | endpoint: mean survival time, dose: 50.0 mg/kg/injection, schedule: Q01DX009 (ip), vehicle: saline 100 % of control

CCCCCCCCCC(=O)NC(=S)Nc1ccc(Cl)cc1
inactive: [19] 95 % of control and 96 % of control | endpoint: mean survival time, dose: 50.0 mg/kg/injection, schedule: Q01DX009 (ip), vehicle: saline with Tween-80 98 % of control and 101 % of control | [1] 94 % of control and 95 % of control | [10] 100 % of control and 104 % of control | [2] 92 % of control and 103 % of control | [11] 92 % of control and 93 % of control | [5] 100 % of control and 103 % of control | [12] 88 % of control and 90 % of control

Cc1[nH]c2ccc(N=CN(C)C)cc2c1C
inactive: endpoint: mean survival time, dose: 25.0 mg/kg/injection, schedule: Q04DX002 (ip), vehicle: saline with Tween-80 111 % of control | endpoint: mean survival time, dose: 50.0 mg/kg/injection, schedule: Q04DX002 (ip), vehicle: saline with Tween-80 111 % of control

COc1cc(NCc2ccc3nc(N)nc(N)c3c2C)cc(OC)c1OC (tested in a mixture with another compound)
inactive: endpoint: median survival time, dose: 10.0 mg/kg/injection, schedule: Q01DX005 (ip), vehicle: water 115 % of control

Oc1ccc(C=NCCN=Cc2ccc(O)cc2O)c(O)c1
inactive: endpoint: mean survival time, dose: 8.0 mg/kg/injection, schedule: Q01DX009 (ip), vehicle: saline with Tween-80 98 % of control | endpoint: mean survival time, dose: 12.0 mg/kg/injection, schedule: Q01DX009 (ip), vehicle: saline with Tween-80 87 % of control | endpoint: mean survival time, dose: 18.0 mg/kg/injection, schedule: Q01DX009 (ip), vehicle: saline with Tween-80 92 % of control | [19] 114 % of control and 96 % of control | [16] 87 % of control | [13] 87 % of control | [15] 88 % of control

COc1ccc(NC(=O)CCl)c(OC)c1
inactive: [10] 108 % of control | [11] 97 % of control | [12] 97 % of control

COc1ccc(OC)c(NC(=O)NCc2ccccc2Cl)c1
inactive: [16] 90 % of control | [17] 100 % of control | [18] 87 % of control

O=C([O][Bi]([c]1ccccc1)[c]1ccccc1)c1ccccc1
inactive: endpoint: median survival time, dose: 6.25 mg/kg/injection, schedule: Q01DX009 (ip), vehicle: Klucel (hydroxypropylcellulose) (HPC) 97 % of control | endpoint: median survival time, dose: 12.5 mg/kg/injection, schedule: Q01DX009 (ip), vehicle: Klucel (hydroxypropylcellulose) (HPC) 95 % of control | endpoint: median survival time, dose: 25.0 mg/kg/injection, schedule: Q01DX009 (ip), vehicle: Klucel (hydroxypropylcellulose) (HPC) 101 % of control
